# Tested on: MtmiR171b
# Experiment: Accumulation of MtmiR171b / pre-MtmiR171b in M. truncatula roots (qRT-PCR)
# Format: in vivo, Medicago truncatula
# Conditions: for relative expression of pre-MtmiR171b: watering once daily for 5 days with peptide at 0.01, 0.1 or 1 μM vs control plants
# Description: The surface of seeds of M truncatula was sterilized and they were left to germinate on agar plates for 5 days at 4° C. in the dark. The young shoots were then grown on 12-cm square plates filled with Fahraeus medium without nitrogen and containing 7.5 μM phosphate (Lauressergues et al., Plant J., 72(3): 512-22, 2012). The lateral roots were counted every day. In pots, the plants were watered every other day with modified Long Ashton medium with low phosphorus content (Balzergue et al., Journal of Experimental Botany, (62)1049-1060, 2011).
# The peptides were synthesized by Eurogentec or Smartox-Biotech. MtmiPEP171b1 was resuspended in a solution of 40% water/50% acetonitrile/10% acetic acid (v/v/v), and the other peptides were resuspended in water.
# The RNA was extracted using the reagent Tri-Reagent (MRC) according to the manufacturer's instructions, except for precipitation of the RNA, which was carried out with 3 volumes of ethanol. The everse transcription of the RNA was carried out using the specific stem-loop primer RTprimer171b in combination with hexamers for performing the reverse transcription of RNA of high molecular weight.
# In brief, 1 μg of RNA was added to the stem-loop primer MIR171b (0.2 μM), the hexamer (500 ng), the buffer RT (1×), the enzyme SuperScript Reverse transcriptase (SSIII) (one unit), the dNTPs (0.2 mM each), DTT (0.8 mM) in a final reaction mixture of 25 μl. […]
# The mean values of the relative expression of the genes or of the production of lateral roots were analysed using the Student test or the Kruskal-Wallis test. […]
# The composite plants having roots transformed with Agrobacterium rhizogenes were obtained by the method described in Boisson-Dernier et al. (Mol Plant-Microbe Interact, 18: 1269-1276, 2005). The transformed roots were verified and selected by observations of DsRED with a binocular fluorescence magnifier. […]
sequence,measurement,setting,value
MLLHRLSKFCKIERDIVYIS (listed as Medicago truncatula) [MtmiPEP171b1],relative expression of MtmiR171b,"watering once daily for 5 days with peptide at 0.01, 0.1 or 1 μM vs control plant",increase in the accumulation
same,relative expression of pre-MtmiR171b,,increase in the accumulation of pre-MtmiR171b
same,relative expression of pre-MtmiR171b,listed as MtPEP171b1,increase in the accumulation
